From PMC8694143 (Microbiology Spectrum, 2021)

What was measured:
Test in all cases: MIC determination in broth
Type in all cases: cell-based, Staphylococcus aureus
MRSA ATCC BAA-41 = conditions: STIP3 variants, highest conc. tested 100 μg/mL; cation-adjusted MH broth, ~10^5 CFU/mL, 2-fold dilution series, 37°C, 16 h
Experimental: (§1) M. luteus ATCC 4698, S. aureus ATCC 29213, a panel of 7 MRSA (ATCC MP-2) strains, which includes ATCC BAA-41, BAA-42, BAA-44, BAA-1683, BAA-2094, BAA-2313, and 33592, and a series of additional bacterial isolates from human and veterinary cases were used in this study (Table S6). Bacterial strains were routinely grown in lysogeny broth (LB: 10 g/L tryptone, 5 g/L yeast extract, 10 g/L NaCl) at 30°C (M. luteus) or 37°C (Staphylococcus spp.) prior to use in specific experiments described below.
(§2) The MICs were measured for bioactive peptides identified from the initial screen. Cation-adjusted Mueller-Hinton (MH) broth was used as the growth medium for MIC determination experiments. Bacterial cultures were diluted to an OD of 5 × 10^−4 (∼10^5 CFU/mL) in 200 μL MH broth mixed with peptides in a 2-fold dilution series arrayed in 96-well plates. Plates were incubated without shaking at 30 or 37°C depending on the organism.

MRSA ATCC BAA-2094 = conditions: STIP3 variants, highest conc. tested 100 μg/mL; cation-adjusted MH broth, ~10^5 CFU/mL, 2-fold dilution series, 37°C, 16 h
Experimental: as §1, §2

MRSA ATCC 33592 = conditions: Table S5; STIP3 variants, highest conc. tested 100 μg/mL; cation-adjusted MH broth, ~10^5 CFU/mL, 2-fold dilution series, 37°C, 16 h
Experimental: as §1, §2

MRSA ATCC BAA-1683 = conditions: STIP3 variants, highest conc. tested 100 μg/mL; cation-adjusted MH broth, ~10^5 CFU/mL, 2-fold dilution series, 37°C, 16 h
Experimental: as §1, §2

MRSA ATCC BAA-42 = conditions: STIP3 variants, highest conc. tested 100 μg/mL; cation-adjusted MH broth, ~10^5 CFU/mL, 2-fold dilution series, 37°C, 16 h
Experimental: as §1, §2

S. aureus ATCC 29213 = conditions: STIP3 variants, highest conc. tested 100 μg/mL; cation-adjusted MH broth, ~10^5 CFU/mL, 2-fold dilution series, 37°C, 16 h
Experimental: as §1, §2

MRSA ATCC BAA-44 = conditions: STIP3 variants, highest conc. tested 100 μg/mL; cation-adjusted MH broth, ~10^5 CFU/mL, 2-fold dilution series, 37°C, 16 h
Experimental: as §1, §2

MRSA ATCC BAA-2313 = conditions: STIP3 variants, highest conc. tested 100 μg/mL; cation-adjusted MH broth, ~10^5 CFU/mL, 2-fold dilution series, 37°C, 16 h
Experimental: as §1, §2

Substance	MIC, S. aureus ATCC BAA 41 (SCCmec II) (MRSA ATCC BAA-41)	MIC, S. aureus ATCC BAA 2094 (SCCmec V) (MRSA ATCC BAA-2094)	MIC, S. aureus ATCC 33592 (SCCmec III) (MRSA ATCC 33592)	MIC, S. aureus ATCC BAA 1683 (SCCmec IV) (MRSA ATCC BAA-1683)	MIC, S. aureus ATCC BAA 42 (SCCmec VI) (MRSA ATCC BAA-42)	MIC, S. aureus ATCC 29213 (S. aureus ATCC 29213)	MIC, S. aureus ATCC BAA 44 (SCCmec I) (MRSA ATCC BAA-44)	MIC, S. aureus ATCC BAA 2313 (SCCmec XI) (MRSA ATCC BAA-2313)
TVAGLVKWILATVKKFA [STIP3-15, rationally designed STIP3-1 variant]	50 µg/mL	25 µg/mL	12.5 µg/mL	25 µg/mL	50 µg/mL	25 µg/mL	25 µg/mL	50 µg/mL
TVDGLVKWILATVKKFA [STIP3-17, rationally designed STIP3-1 variant]	> (The > symbol indicates that no inhibition was observed at 100 μg/mL for the STIP3 variants)	> (The > symbol indicates that no inhibition was observed at 100 μg/mL for the STIP3 variants)	> (The > symbol indicates that no inhibition was observed at 100 μg/mL for the STIP3 variants)	> (The > symbol indicates that no inhibition was observed at 100 μg/mL for the STIP3 variants)	> (The > symbol indicates that no inhibition was observed at 100 μg/mL for the STIP3 variants)	> (The > symbol indicates that no inhibition was observed at 100 μg/mL for the STIP3 variants)	> (The > symbol indicates that no inhibition was observed at 100 μg/mL for the STIP3 variants)	> (The > symbol indicates that no inhibition was observed at 100 μg/mL for the STIP3 variants)
TVGGLVKWILAAVKKFA [STIP3-12, rationally designed STIP3-1 variant]	25 µg/mL	50 µg/mL	25 µg/mL	25 µg/mL	25 µg/mL	25 µg/mL	25 µg/mL	25 µg/mL
TVGGLVKWILDTFKKFA [STIP3-11, rationally designed STIP3-1 variant]	50 µg/mL	100 µg/mL	50 µg/mL	50 µg/mL	50 µg/mL	50 µg/mL	100 µg/mL	100 µg/mL
TVGGLVKWILDTVKKFA-NH2 [STIP3-27, C-terminally amidated STIP3-1]	25 µg/mL	25 µg/mL	50 µg/mL	25 µg/mL	25 µg/mL	50 µg/mL	25 µg/mL	50 µg/mL
TVGGLVKWILDVVKKFA [STIP3-9, rationally designed STIP3-1 variant]	35 µg/mL	25 µg/mL	25 µg/mL	25 µg/mL	25 µg/mL	25 µg/mL	25 µg/mL	25 µg/mL
TVGGLVKWILDWVKKFA [STIP3-10, rationally designed STIP3-1 variant]	100 µg/mL	100 µg/mL	100 µg/mL	> (The > symbol indicates that no inhibition was observed at 100 μg/mL for the STIP3 variants)	25 µg/mL	100 µg/mL	200 µg/mL	50 µg/mL
TVGGLVKWILKAVKKFA [STIP3-13, rationally designed STIP3-1 variant]	12.5 µg/mL	25 µg/mL	25 µg/mL	25 µg/mL	25 µg/mL	25 µg/mL	25 µg/mL	25 µg/mL
TVGGLVKWILKTVKKFA [STIP3-3, rationally designed STIP3-1 variant]	25 µg/mL	25 µg/mL	25 µg/mL	50 µg/mL	50 µg/mL	25 µg/mL	25 µg/mL	50 µg/mL
TVGGLVKWILNTVKKFA [STIP3-4, rationally designed STIP3-1 variant]	50 µg/mL	50 µg/mL	50 µg/mL	100 µg/mL	50 µg/mL	100 µg/mL	50 µg/mL	100 µg/mL
TVGVLVKWILNVVAKFA [STIP3-24, rationally designed STIP3-1 variant]	> (The > symbol indicates that no inhibition was observed at 100 μg/mL for the STIP3 variants)	> (The > symbol indicates that no inhibition was observed at 100 μg/mL for the STIP3 variants)	> (The > symbol indicates that no inhibition was observed at 100 μg/mL for the STIP3 variants)	> (The > symbol indicates that no inhibition was observed at 100 μg/mL for the STIP3 variants)	> (The > symbol indicates that no inhibition was observed at 100 μg/mL for the STIP3 variants)	> (The > symbol indicates that no inhibition was observed at 100 μg/mL for the STIP3 variants)	> (The > symbol indicates that no inhibition was observed at 100 μg/mL for the STIP3 variants)	> (The > symbol indicates that no inhibition was observed at 100 μg/mL for the STIP3 variants)
TVKALVKWILKTVAKFA [STIP3-19, rationally designed STIP3-1 variant]	50 µg/mL	25 µg/mL	25 µg/mL	25 µg/mL	50 µg/mL	50 µg/mL	25 µg/mL	25 µg/mL
TVKALVKWILKTVAKFW [STIP3-21, rationally designed STIP3-1 variant]	25 µg/mL	12.5 µg/mL	25 µg/mL	12.5 µg/mL	25 µg/mL	25 µg/mL	25 µg/mL	12.5 µg/mL
